Laboratory results taken from patent publication US4965280A, “Antifungal carbinols” (E. I. Du Pont de Nemours and Company, priority 1989, dated 1990).

Assays:
Assay in all cases: Test E
BLACK NIGHTSHAD = assay type: in vivo, Solanum nigrum
LAMBSQUARTER = assay type: in vivo, Chenopodium album
REDROOT PIGWEED = assay type: in vivo, Amaranthus retroflexus
PERSN SPEEDWELL = assay type: in vivo, Veronica persica
WILD BUCKWHEAT = assay type: in vivo, Polygonum convolvulus
MUSTARD SPP. = assay type: in vivo, Brassica spp.
ANN. BLUEGRASS = assay type: in vivo, PO annua

Row | Structure (SMILES) | plant response (BLACK NIGHTSHAD; POSTEMERGENCE 0064 GM/HA) [%] | plant response (BLACK NIGHTSHAD; POSTEMERGENCE 0125 GM/HA) [%] | plant response (BLACK NIGHTSHAD; POSTEMERGENCE 0250 GM/HA) [%] | plant response (BLACK NIGHTSHAD; POSTEMERGENCE 0500 GM/HA) [%] | plant response (BLACK NIGHTSHAD; PREEMERGENCE 0500 GM/HA) [%] | plant response (LAMBSQUARTER; POSTEMERGENCE 0064 GM/HA) [%] | plant response (LAMBSQUARTER; POSTEMERGENCE 0125 GM/HA) [%] | plant response (LAMBSQUARTER; POSTEMERGENCE 0250 GM/HA) [%] | plant response (LAMBSQUARTER; POSTEMERGENCE 0500 GM/HA) [%] | plant response (LAMBSQUARTER; PREEMERGENCE 0500 GM/HA) [%] | plant response (REDROOT PIGWEED; POSTEMERGENCE 0064 GM/HA) [%] | plant response (REDROOT PIGWEED; POSTEMERGENCE 0125 GM/HA) [%] | plant response (REDROOT PIGWEED; POSTEMERGENCE 0250 GM/HA) [%] | plant response (REDROOT PIGWEED; POSTEMERGENCE 0500 GM/HA) [%] | plant response (REDROOT PIGWEED; PREEMERGENCE 0500 GM/HA) [%] | plant response (PERSN SPEEDWELL; POSTEMERGENCE 0064 GM/HA) [%] | plant response (PERSN SPEEDWELL; POSTEMERGENCE 0125 GM/HA) [%] | plant response (PERSN SPEEDWELL; POSTEMERGENCE 0250 GM/HA) [%] | plant response (PERSN SPEEDWELL; POSTEMERGENCE 0500 GM/HA) [%] | plant response (PERSN SPEEDWELL; PREEMERGENCE 0500 GM/HA) [%] | further results
1 | C=C(c1ccc(F)cc1)C(O)(Cn1cncn1)c1ccc(F)cc1F (centres unmarked) [Example 4, 2-(2,4-Difluorophenyl)-3-(4-fluorophenyl)-1-(1H-1,2,4-triazol-1-yl)-3-buten-2-ol] | 10 | 30 | 70 | 90 | 100 | 0 | 20 | 20 | 70 | 100 | 20 | 40 | 90 | 90 | 100 | 20 | 70 | 100 | 100 | 90 | plant response (WILD BUCKWHEAT; POSTEMERGENCE 0064 GM/HA): 0%; plant response (WILD BUCKWHEAT; POSTEMERGENCE 0125 GM/HA): 0%; plant response (WILD BUCKWHEAT; POSTEMERGENCE 0250 GM/HA): 40%; plant response (WILD BUCKWHEAT; POSTEMERGENCE 0500 GM/HA): 70%; plant response (WILD BUCKWHEAT; PREEMERGENCE 0500 GM/HA): 40%; plant response (MUSTARD SPP.; POSTEMERGENCE 0064 GM/HA): 20%; plant response (MUSTARD SPP.; POSTEMERGENCE 0125 GM/HA): 40%; plant response (MUSTARD SPP.; POSTEMERGENCE 0250 GM/HA): 40%; plant response (MUSTARD SPP.; POSTEMERGENCE 0500 GM/HA): 80%; plant response (MUSTARD SPP.; PREEMERGENCE 0500 GM/HA): 50%; plant response (ANN. BLUEGRASS; POSTEMERGENCE 0064 GM/HA): 0%; plant response (ANN. BLUEGRASS; POSTEMERGENCE 0125 GM/HA): 20%; plant response (ANN. BLUEGRASS; POSTEMERGENCE 0250 GM/HA): 40%; plant response (ANN. BLUEGRASS; POSTEMERGENCE 0500 GM/HA): 60%; plant response (ANN. BLUEGRASS; PREEMERGENCE 0500 GM/HA): 100%
2 | C=C(c1ccc(Cl)cc1Cl)C(O)(Cn1cncn1)c1ccccc1F (centres unmarked) [Example 107] | – | – | – | – | – | – | – | – | – | – | – | – | – | – | – | – | – | – | – | – | plant response (BLACK NIGHTSHAD; PREEMERGENCE 0250 GM/HA): 80%; plant response (LAMBSQUARTER; PREEMERGENCE 0250 GM/HA): 90%; plant response (REDROOT PIGWEED; PREEMERGENCE 0250 GM/HA): 100%; plant response (PERSN SPEEDWELL; PREEMERGENCE 0250 GM/HA): 100%; plant response (WILD BUCKWHEAT; PREEMERGENCE 0250 GM/HA): 0%; plant response (MUSTARD SPP.; PREEMERGENCE 0250 GM/HA): 20%; plant response (ANN. BLUEGRASS; PREEMERGENCE 0250 GM/HA): 20%
3 | C=C(c1ccc(F)cc1)C(O)(Cn1cncn1)c1ccccc1F (centres unmarked) [Example 644] | 0 | 0 | 10 | 20 | 0 | 0 | 0 | 20 | 40 | 85 | 50 | 50 | 50 | 60 | 80 | 0 | 20 | 40 | 80 | 50 | plant response (WILD BUCKWHEAT; POSTEMERGENCE 0064 GM/HA): 0%; plant response (WILD BUCKWHEAT; POSTEMERGENCE 0125 GM/HA): 0%; plant response (WILD BUCKWHEAT; POSTEMERGENCE 0250 GM/HA): 0%; plant response (WILD BUCKWHEAT; POSTEMERGENCE 0500 GM/HA): 0%; plant response (WILD BUCKWHEAT; PREEMERGENCE 0500 GM/HA): 30%; plant response (MUSTARD SPP.; POSTEMERGENCE 0064 GM/HA): 20%; plant response (MUSTARD SPP.; POSTEMERGENCE 0125 GM/HA): 20%; plant response (MUSTARD SPP.; POSTEMERGENCE 0250 GM/HA): 50%; plant response (MUSTARD SPP.; POSTEMERGENCE 0500 GM/HA): 50%; plant response (MUSTARD SPP.; PREEMERGENCE 0500 GM/HA): 0%; plant response (ANN. BLUEGRASS; POSTEMERGENCE 0064 GM/HA): 20%; plant response (ANN. BLUEGRASS; POSTEMERGENCE 0125 GM/HA): 50%; plant response (ANN. BLUEGRASS; POSTEMERGENCE 0250 GM/HA): 50%; plant response (ANN. BLUEGRASS; POSTEMERGENCE 0500 GM/HA): 80%; plant response (ANN. BLUEGRASS; PREEMERGENCE 0500 GM/HA): 80%
